According to ChEMBL document CHEMBL4507276 (2021):

Key:
[1] = molecular target: Ephrin type-A receptor 4 (Homo sapiens) (UniProt P54764); conditions: Compound concentration 1000.0 nM
[2] = molecular target: Phosphatidylinositol 3-kinase C2 domain-containing subunit gamma (Homo sapiens) (UniProt O75747); conditions: Compound concentration 1000.0 nM
[3] = molecular target: Mitotic checkpoint serine/threonine-protein kinase BUB1 (Homo sapiens) (UniProt O43683); conditions: Compound concentration 1000.0 nM
Mitotic checkpoint serine/threonine-protein kinase BUB1 (Homo sapiens), sequence (O43683 whole entry, looked up): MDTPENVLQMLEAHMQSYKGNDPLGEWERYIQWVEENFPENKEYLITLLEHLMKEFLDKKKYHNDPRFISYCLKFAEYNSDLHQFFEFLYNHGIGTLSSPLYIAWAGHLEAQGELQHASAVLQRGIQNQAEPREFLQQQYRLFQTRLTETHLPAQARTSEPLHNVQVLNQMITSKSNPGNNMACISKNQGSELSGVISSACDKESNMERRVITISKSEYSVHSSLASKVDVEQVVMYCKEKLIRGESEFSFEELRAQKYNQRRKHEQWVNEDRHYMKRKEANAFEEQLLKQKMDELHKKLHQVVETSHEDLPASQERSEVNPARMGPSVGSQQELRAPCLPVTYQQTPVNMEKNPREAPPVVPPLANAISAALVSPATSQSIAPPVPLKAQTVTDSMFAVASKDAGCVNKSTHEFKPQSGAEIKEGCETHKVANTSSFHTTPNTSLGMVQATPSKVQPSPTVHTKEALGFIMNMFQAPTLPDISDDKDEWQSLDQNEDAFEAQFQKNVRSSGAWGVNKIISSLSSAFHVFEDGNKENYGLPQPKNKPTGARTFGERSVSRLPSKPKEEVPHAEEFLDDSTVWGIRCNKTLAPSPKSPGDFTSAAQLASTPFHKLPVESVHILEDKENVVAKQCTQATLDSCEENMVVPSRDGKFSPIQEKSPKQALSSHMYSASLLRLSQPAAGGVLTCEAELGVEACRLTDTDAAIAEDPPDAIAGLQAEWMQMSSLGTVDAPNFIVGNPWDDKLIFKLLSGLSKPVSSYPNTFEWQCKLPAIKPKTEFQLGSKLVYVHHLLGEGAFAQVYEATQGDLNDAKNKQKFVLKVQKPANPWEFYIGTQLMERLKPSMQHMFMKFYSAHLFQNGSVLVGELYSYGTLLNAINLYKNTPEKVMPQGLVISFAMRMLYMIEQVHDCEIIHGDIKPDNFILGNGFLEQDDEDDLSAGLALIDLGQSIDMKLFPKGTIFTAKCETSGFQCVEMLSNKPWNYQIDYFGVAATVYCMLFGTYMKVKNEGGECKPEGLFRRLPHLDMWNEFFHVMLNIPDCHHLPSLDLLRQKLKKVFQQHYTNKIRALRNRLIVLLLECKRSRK

[4] = molecular target: Serine/threonine-protein kinase Nek3 (Homo sapiens) (UniProt P51956); conditions: Compound concentration 1000.0 nM
[5] = molecular target: Tyrosine-protein kinase Fyn (Homo sapiens) (UniProt P06241); conditions: Compound concentration 1000.0 nM
[6] = molecular target: Testis-specific serine/threonine-protein kinase 1 (Homo sapiens) (UniProt Q9BXA7); conditions: Compound concentration 1000.0 nM
[7] = molecular target: T1, Serine/threonine-protein kinase Sgk3 (Homo sapiens) (UniProt Q96BR1); conditions: Compound concentration 1000.0 nM
T1 sequence (whole entry): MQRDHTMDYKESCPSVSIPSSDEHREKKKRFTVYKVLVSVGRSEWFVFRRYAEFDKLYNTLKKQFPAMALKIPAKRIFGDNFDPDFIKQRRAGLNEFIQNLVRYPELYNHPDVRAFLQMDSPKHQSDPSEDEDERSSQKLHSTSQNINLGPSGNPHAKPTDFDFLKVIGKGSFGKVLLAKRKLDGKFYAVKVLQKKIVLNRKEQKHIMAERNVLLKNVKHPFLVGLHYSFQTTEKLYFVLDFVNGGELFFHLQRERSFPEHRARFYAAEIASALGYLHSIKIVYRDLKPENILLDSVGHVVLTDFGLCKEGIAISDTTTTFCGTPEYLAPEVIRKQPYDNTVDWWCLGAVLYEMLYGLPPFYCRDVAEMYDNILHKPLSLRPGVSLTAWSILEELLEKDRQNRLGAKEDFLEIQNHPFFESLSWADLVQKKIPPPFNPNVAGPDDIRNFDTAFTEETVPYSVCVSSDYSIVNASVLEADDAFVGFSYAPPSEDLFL

[8] = molecular target: Serine/threonine-protein kinase WNK1 (Homo sapiens) (UniProt Q9H4A3); conditions: Compound concentration 1000.0 nM
[9] = molecular target: Dual specificity tyrosine-phosphorylation-regulated kinase 2 (Homo sapiens) (UniProt Q92630); conditions: Compound concentration 1000.0 nM
[10] = molecular target: Tyrosine-protein kinase Fer (Homo sapiens) (UniProt P16591); conditions: Compound concentration 1000.0 nM
[11] = molecular target: T2, Ephrin type-A receptor 1 (Homo sapiens) (UniProt P21709); conditions: Compound concentration 1000.0 nM
T2 sequence (whole entry): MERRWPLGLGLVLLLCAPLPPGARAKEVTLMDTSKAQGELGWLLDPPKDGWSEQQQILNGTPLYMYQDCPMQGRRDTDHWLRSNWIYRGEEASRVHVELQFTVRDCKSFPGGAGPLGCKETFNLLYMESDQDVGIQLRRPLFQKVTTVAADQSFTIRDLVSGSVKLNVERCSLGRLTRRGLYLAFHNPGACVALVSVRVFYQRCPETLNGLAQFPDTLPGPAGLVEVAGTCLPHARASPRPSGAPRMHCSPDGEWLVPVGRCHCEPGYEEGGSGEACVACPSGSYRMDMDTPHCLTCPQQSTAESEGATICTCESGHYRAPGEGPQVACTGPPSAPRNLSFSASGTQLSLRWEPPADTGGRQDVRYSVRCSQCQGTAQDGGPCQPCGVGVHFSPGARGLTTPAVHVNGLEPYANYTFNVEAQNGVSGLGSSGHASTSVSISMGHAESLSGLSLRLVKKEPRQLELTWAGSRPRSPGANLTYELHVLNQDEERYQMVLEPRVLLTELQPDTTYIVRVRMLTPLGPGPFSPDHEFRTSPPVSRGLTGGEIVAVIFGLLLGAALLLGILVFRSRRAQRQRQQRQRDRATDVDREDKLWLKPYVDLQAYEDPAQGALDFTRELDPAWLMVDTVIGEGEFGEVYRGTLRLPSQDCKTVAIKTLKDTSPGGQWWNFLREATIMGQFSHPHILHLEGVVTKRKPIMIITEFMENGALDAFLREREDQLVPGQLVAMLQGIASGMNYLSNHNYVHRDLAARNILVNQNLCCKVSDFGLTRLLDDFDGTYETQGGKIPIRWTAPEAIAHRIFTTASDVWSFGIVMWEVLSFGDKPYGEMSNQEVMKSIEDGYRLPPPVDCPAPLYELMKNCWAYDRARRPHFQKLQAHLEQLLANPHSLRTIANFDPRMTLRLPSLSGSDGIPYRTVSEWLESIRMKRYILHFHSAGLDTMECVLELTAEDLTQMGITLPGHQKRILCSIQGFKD

[12] = molecular target: Mu-type opioid receptor (Homo sapiens) (UniProt P35372); conditions: Compound concentration 10.0 uM
[13] = molecular target: T3, Serine/threonine-protein kinase Chk1 (Homo sapiens) (UniProt O14757); conditions: Compound concentration 1000.0 nM
T3 sequence (whole entry): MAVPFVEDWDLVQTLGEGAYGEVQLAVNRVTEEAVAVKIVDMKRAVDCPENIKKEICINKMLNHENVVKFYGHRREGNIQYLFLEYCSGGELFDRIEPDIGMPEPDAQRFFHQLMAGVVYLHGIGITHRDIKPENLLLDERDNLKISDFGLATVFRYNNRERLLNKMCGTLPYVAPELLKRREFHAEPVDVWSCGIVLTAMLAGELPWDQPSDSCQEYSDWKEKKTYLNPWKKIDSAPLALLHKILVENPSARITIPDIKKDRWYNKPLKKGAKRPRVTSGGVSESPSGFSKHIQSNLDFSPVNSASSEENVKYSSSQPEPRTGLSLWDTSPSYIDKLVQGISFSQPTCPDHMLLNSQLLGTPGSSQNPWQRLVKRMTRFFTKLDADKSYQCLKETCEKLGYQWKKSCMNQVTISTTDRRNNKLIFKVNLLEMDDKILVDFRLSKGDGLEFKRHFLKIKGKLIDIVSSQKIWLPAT

[14] = molecular target: Mast/stem cell growth factor receptor Kit (Homo sapiens) (UniProt P10721); conditions: Compound concentration 1000.0 nM
[15] = molecular target: D(2) dopamine receptor (Homo sapiens) (UniProt P14416); conditions: Compound concentration 10.0 uM
[16] = molecular target: Cyclin-dependent kinase 5 (Homo sapiens) (UniProt Q00535); conditions: Compound concentration 1000.0 nM
[17] = molecular target: Tyrosine-protein kinase Lck (Homo sapiens) (UniProt P06239); conditions: Compound concentration 1000.0 nM
[18] = tested on: ALK tyrosine kinase receptor (Homo sapiens), Q9UM73 [C1156Y]; conditions: Compound concentration 1000.0 nM
ALK tyrosine kinase receptor (Homo sapiens), Q9UM73 [C1156Y], sequence (Q9UM73 whole entry C1156Y, looked up): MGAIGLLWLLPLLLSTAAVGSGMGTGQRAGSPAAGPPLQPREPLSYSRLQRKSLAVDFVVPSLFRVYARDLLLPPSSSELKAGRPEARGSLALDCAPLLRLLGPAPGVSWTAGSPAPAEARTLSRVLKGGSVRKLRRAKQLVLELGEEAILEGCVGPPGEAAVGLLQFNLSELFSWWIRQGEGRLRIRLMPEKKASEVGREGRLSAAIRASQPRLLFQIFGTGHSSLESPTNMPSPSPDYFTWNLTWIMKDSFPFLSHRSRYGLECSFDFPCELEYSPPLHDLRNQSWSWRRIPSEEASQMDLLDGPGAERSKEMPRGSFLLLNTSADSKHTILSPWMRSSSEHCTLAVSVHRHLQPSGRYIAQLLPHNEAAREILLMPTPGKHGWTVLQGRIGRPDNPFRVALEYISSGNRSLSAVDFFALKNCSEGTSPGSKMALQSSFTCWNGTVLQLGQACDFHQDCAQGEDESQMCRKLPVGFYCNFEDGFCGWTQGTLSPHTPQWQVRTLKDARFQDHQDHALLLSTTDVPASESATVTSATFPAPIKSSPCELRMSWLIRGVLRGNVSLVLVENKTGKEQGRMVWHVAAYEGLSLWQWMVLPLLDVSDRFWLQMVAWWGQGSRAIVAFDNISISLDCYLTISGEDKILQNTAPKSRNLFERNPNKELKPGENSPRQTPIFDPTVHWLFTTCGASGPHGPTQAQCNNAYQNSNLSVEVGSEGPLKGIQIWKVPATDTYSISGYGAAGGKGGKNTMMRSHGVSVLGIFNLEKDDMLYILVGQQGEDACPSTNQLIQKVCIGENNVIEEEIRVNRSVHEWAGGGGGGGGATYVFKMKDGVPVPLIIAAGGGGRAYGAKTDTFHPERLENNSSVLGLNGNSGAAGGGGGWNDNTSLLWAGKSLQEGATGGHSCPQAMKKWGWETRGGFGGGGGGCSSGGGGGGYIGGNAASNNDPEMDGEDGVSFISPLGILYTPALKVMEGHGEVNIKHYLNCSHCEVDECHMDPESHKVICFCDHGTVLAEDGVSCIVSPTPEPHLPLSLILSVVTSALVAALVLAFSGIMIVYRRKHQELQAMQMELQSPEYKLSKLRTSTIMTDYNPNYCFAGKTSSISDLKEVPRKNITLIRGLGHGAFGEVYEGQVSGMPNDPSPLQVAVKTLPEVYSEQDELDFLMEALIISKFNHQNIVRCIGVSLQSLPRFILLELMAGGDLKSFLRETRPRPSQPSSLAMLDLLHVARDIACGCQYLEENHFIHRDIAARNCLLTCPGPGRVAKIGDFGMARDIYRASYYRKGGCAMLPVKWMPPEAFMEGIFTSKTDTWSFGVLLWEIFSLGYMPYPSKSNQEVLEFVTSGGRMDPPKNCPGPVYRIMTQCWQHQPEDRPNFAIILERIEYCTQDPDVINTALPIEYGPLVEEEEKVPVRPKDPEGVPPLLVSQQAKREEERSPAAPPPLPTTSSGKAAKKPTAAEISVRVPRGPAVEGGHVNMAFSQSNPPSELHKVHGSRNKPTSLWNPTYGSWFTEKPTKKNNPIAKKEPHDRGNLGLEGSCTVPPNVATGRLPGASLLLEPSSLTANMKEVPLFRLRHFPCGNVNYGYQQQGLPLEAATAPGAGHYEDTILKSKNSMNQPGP

[19] = molecular target: STE20-like serine/threonine-protein kinase (Homo sapiens) (UniProt Q9H2G2); conditions: Compound concentration 1000.0 nM
STE20-like serine/threonine-protein kinase (Homo sapiens), sequence (Q9H2G2 whole entry, looked up): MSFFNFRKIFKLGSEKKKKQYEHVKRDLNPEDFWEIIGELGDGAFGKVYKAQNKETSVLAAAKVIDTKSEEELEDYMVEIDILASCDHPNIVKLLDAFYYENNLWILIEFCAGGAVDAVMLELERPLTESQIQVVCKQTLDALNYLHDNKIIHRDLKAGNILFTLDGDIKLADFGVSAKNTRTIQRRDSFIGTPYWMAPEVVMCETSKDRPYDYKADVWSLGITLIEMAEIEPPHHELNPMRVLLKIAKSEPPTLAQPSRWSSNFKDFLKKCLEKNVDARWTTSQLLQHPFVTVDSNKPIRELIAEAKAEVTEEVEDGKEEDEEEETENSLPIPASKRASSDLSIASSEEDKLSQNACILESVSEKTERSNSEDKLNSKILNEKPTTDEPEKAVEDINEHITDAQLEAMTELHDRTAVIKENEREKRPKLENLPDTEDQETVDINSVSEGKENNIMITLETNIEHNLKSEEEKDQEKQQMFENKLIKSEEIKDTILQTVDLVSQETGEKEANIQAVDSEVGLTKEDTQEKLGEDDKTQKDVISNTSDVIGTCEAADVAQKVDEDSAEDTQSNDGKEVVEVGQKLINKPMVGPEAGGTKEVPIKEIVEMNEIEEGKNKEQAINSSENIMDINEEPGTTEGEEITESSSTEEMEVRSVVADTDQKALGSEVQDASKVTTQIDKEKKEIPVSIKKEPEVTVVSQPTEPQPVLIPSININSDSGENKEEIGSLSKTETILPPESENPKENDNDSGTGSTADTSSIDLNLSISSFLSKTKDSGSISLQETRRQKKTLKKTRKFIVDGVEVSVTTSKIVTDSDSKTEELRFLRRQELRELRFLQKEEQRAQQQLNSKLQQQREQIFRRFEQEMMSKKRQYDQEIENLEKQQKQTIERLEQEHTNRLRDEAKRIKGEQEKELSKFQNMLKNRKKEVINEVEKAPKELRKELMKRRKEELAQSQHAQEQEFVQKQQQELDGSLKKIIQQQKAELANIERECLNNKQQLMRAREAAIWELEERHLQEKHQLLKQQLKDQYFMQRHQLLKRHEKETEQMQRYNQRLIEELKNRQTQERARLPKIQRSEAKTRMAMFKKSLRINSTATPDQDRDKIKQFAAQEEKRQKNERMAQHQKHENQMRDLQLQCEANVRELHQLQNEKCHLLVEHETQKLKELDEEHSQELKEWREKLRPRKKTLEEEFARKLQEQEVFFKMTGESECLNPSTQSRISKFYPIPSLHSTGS

Ephrin type-A receptor 4 (Homo sapiens), sequence (P54764 whole entry, the tested form may be a part): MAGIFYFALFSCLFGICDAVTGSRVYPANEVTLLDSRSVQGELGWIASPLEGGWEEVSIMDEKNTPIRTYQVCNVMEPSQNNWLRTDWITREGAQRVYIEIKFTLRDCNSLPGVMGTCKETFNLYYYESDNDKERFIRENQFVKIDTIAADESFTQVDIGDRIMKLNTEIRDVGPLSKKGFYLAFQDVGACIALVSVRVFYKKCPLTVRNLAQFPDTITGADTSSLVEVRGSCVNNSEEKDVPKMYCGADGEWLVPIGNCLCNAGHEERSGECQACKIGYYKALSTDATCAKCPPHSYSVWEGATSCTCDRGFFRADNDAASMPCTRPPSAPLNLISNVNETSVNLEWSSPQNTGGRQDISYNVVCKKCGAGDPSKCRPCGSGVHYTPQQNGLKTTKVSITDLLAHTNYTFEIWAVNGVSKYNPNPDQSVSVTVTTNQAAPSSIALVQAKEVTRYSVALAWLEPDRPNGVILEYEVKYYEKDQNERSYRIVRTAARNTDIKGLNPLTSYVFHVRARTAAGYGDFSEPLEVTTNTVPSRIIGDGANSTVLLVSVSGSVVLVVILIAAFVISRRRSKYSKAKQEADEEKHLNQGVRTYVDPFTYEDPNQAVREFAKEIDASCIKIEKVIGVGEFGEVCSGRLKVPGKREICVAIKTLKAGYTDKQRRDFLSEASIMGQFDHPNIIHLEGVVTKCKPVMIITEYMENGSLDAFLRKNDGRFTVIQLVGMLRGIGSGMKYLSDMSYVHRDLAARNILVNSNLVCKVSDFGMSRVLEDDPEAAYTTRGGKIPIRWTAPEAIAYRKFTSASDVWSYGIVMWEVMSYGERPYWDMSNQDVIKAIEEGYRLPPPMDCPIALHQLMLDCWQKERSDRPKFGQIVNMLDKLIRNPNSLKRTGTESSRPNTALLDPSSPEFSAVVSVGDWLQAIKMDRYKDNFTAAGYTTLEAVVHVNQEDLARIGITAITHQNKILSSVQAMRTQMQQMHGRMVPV

CN(C)C(=O)Cn1cc(-c2nc(C3(c4ccc(-c5cnc(N)nc5)cc4)CC3)no2)cn1 [BI 0153]
inactive: residual activity [1] 100% | residual activity [2] 76% | residual activity [3] 75% | residual activity [4] 57% | residual activity [5] 100% | residual activity [6] 100% | residual activity [7] 75% | residual activity [8] 97% | residual activity [9] 81% | residual activity [10] 79% | residual activity [11] 100% | inhibition [12] 12.6% | residual activity [13] 100% | residual activity [14] 93% | inhibition [15] 16.1% | residual activity [16] 100% | residual activity [17] 83% | residual activity [18] 100% | residual activity [19] 77%

CN(C)C(=O)Cn1cc(-c2nc([C@@](C)(c3ccc(-c4cnc(N)nc4)cc3)C3CC3)no2)cn1 [BI 665915]
inactive: residual activity [1] 100% | residual activity [2] 66% | residual activity [3] 75% | residual activity [4] 87% | residual activity [5] 86% | residual activity [6] 100% | residual activity [7] 76% | residual activity [8] 94% | residual activity [9] 89% | residual activity [10] 94% | residual activity [11] 97% | inhibition [12] 4.55% | residual activity [13] 85% | residual activity [14] 87% | inhibition [15] 13.6% | residual activity [16] 100% | residual activity [17] 86% | residual activity [18] 98% | residual activity [19] 94%
